The results in this text go back to publication PMC6099623, “Novel Thiazolidinone/Thiazolo[3,2-a]Benzimidazolone-Isatin Conjugates as Apoptotic Anti-proliferative Agents Towards Breast Cancer: One-Pot Synthesis and In Vitro Biological Evaluation” (Molecules : A Journal of Synthetic Chemistry and Natural …, 2018).

Each structure is given as a SMILES string. Where only a bound is given, the exact number is not on record here.

Series [1] deals with MDA-MB-231 breast cancer cell line. The series is described as follows: Crystal Violet antiproliferative assay, MDA-MB-231. The note with it: 48 h of incubation, mean ± S.D. of three separate experiments. It counts as cell-based. The procedure: (§1) The in vitro antiproliferative activity of the newly synthesized conjugates 4a–n and 7a–d was evaluated against breast cancer MDA-MB-231 and MCF-7 cell lines, following the Crystal Violet (CV) cell cytotoxicity assay. Doxorubicin was included in this assay as a positive control, and Sunitinib was used as a reference drug.
(§2) Breast cancer cell lines MDA-MB-231 and MCF-7 cells were obtained from VACSERA Tissue Culture Unit. The cells were propagated in DMEM supplemented with 10% heat-inactivated fetal bovine serum, 1% L-glutamine (2.5 mM), HEPES (4-(2-hydroxyethyl)-1-piperazineethanesulfonic acid) buffer (10 mM) and 50 µg/mL gentamycin. All cells were maintained at 37 °C in a humidified atmosphere with 5% CO2 and were sub-cultured two times a week. Cytotoxicity was determined following the Crystal Violet (CV) cell cytotoxicity assay.
(§3) Test samples were dissolved in DMSO and kept at a stock concentration of 100 mM. Exponentially growing cells were collected using 0.25% Trypsin-EDTA and seeding was done at a density of 3000 cells/well in 96-well plates. After 24 h, the monolayer cultured cells were washed with sterile phosphate buffered saline (0.01 M pH 7.2) and simultaneously the cells were treated with […] from 10 different dilutions of the test compounds as well as Doxorubicin was […] Control wells were exposed to the same concentration of vehicle, DMSO (1%) used in the highest concentration of the test samples. Cell viability was >99% compared to untreated cells. The number of the surviving cells was determined by staining the cells with crystal violet followed by cell lysing using 33% glacial acetic acid. The absorbance was measured at 490 nm using ELISA reader (Thermo Fisher Scientific, Waltham, MA, USA) after gentle shaking. The absorbance values from untreated cells were considered as 100% proliferation.
(§4) The number of viable cells was determined using ELISA reader as previously mentioned and the percentage of viability was calculated as […] where ODt is the mean optical density of wells treated with the test sample and ODc is the mean optical density of untreated cells. The 50% inhibitory concentration (IC50) was estimated from graphic plots of the dose response curve for each conc. using GraphPad Prism software, Version 5 (San Diego, CA, USA). The data presented are the mean of at least three separate experiments.

Series [2] has as its system MCF-7 breast cancer cell line. The series is described as follows: Crystal Violet antiproliferative assay, MCF-7. It counts as cell-based. The note with it: Homo sapiens, MCF7, 48 h, Crystal Violet assay; 48 h of incubation; mean ± S.D. of three separate experiments. The procedure: as §1, §2, §3, §4
For series [3], the system named is lung fibroblast cell line (WI-38). The series is described as follows: Crystal violet cytotoxicity towards nontumorigenic WI-38. It counts as cell-based. The note with it: Homo sapiens, nontumorigenic cells, mean ± S.D. of three separate experiments. The procedure:
(§5) The cytotoxic activity of the active conjugates towards MDA-MB-231 cells (4c–e, 4g, 4l–n and 7a–d) was examined against nontumorigenic human lung fibroblast cell line (WI-38) and human breast epithelial cell line (MCF-10A) to investigate the potential safety of the newly prepared conjugates towards the normal cells. […] The results were expressed as IC50 values, and selectivity index was calculated (Table 2).
(§6) The cytotoxic activity of the active conjugates towards nontumorigenic human lung fibroblast cell line (WI-38) and human breast epithelial cell line (MCF-10A) was determined using Crystal violet (CV) cell cytotoxicity assay according to the previously published procedures.

Series [4] relates to breast epithelial cell line (MCF-10A). The series is described as follows: Crystal violet cytotoxicity towards nontumorigenic MCF-10A. It counts as cell-based, human. The note with it: for IC50: Homo sapiens, MCF-10A, nontumorigenic cells, mean ± S.D. of three separate experiments; for Selectivity Index (MCF-10A/MDA-MB-231): ratio of IC50 MCF-10A to IC50 MDA-MB-231. The procedure:
as §5, §6

For the compound `O=C1Nc2ccccc2C1=C1SC(=Nc2ccccc2)N(c2ccccc2)C1=O` [Compound 4a, 5-(2-Oxoindolin-3-ylidene)-3-phenyl-2-(phenylimino)thiazolidin-4-one], the IC50 in series [1] (Homo sapiens, MDA-MB-231, 48 h) is over 200 µM; in series [2], over 200 µM.
`O=C1Nc2ccc(F)cc2C1=C1SC(=Nc2ccccc2)N(c2ccccc2)C1=O` [Compound 4b, 5-(5-Fluoro-2-oxoindolin-3-ylidene)-3-phenyl-2-(phenylimino)thiazolidin-4-one] returned a melting point of over 300 °C. In series [1] (Homo sapiens, MDA-MB-231, 48 h), this compound showed an IC50 of 108 ± 8.2 µM. In series [2], this compound displayed an IC50 of 58.5 ± 3.2 µM.
Consider `O=C1Nc2ccc(Cl)cc2C1=C1SC(=Nc2ccccc2)N(c2ccccc2)C1=O` [Compound 4c, 5-(5-Chloro-2-oxoindolin-3-ylidene)-3-phenyl-2-(phenylimino)thiazolidin-4-one], for which the IC50 in series [1] (Homo sapiens, MDA-MB-231, 48 h) was found to be 24.1 ± 2.1 µM; in series [2], 29.2 ± 2.5 µM; in series [3] it was 87.2 ± 5.2 µM; in series [4], 113 ± 5.9 µM. Also, in series [4], the “Selectivity Index (MCF-10A/MDA-MB-231)” value is given as 4.7.
The corresponding values for `O=C1Nc2ccc(Br)cc2C1=C1SC(=Nc2ccccc2)N(c2ccccc2)C1=O` [Compound 4d, 5-(5-Bromo-2-oxoindolin-3-ylidene)-3-phenyl-2-(phenylimino)thiazolidin-4-one] are 15.7 ± 0.9 µM, 17.1 ± 1.1 µM, 65.5 ± 4.2 µM, 80.7 ± 3.4 µM and 5.1.
For `COc1ccc2c(c1)C(=C1SC(=Nc3ccccc3)N(c3ccccc3)C1=O)C(=O)N2` [Compound 4e, 5-(5-Methoxy-2-oxoindolin-3-ylidene)-3-phenyl-2-(phenylimino)thiazolidin-4-one] the same measures were 42.6 ± 3.4 µM, 52.9 ± 5 µM, 193 ± 10.6 µM, 89.6 ± 5.1 µM and 2.1.
For the compound `Cc1ccc2c(c1)C(=C1SC(=Nc3ccccc3)N(c3ccccc3)C1=O)C(=O)N2` [Compound 4f, 5-(5-Methyl-2-oxoindolin-3-ylidene)-3-phenyl-2-(phenylimino)thiazolidin-4-one], the IC50 amounted to 60.9 ± 4.2 µM in series [1] (Homo sapiens, MDA-MB-231, 48 h) and 22.8 ± 2 µM in series [2].
For the compound `Cc1cc(C)c2c(c1)C(=C1SC(=Nc3ccccc3)N(c3ccccc3)C1=O)C(=O)N2` [Compound 4g, 5-(5,7-Dimethyl-2-oxoindolin-3-ylidene)-3-phenyl-2-(phenylimino)thiazolidin-4-one], the melting point was over 300 °C. In series [1] (Homo sapiens, MDA-MB-231, 48 h), 43.6 ± 3.1 µM corresponded to half-maximal inhibition (IC50). This compound also came in with a concentration for half-maximal inhibition (IC50) in series [3] of 120 ± 7.8 µM. Further, in series [4], the IC50 was found to be 142 ± 7.9 µM and the “Selectivity Index (MCF-10A/MDA-MB-231)” value was 3.25.
In turn, `Cc1ccc(N=C2SC(=C3C(=O)Nc4ccccc43)C(=O)N2c2ccc(C)cc2)cc1` [Compound 4h, 5-(2-Oxoindolin-3-ylidene)-3-(p-tolyl)-2-(p-tolylimino)thiazolidin-4-one] displayed a melting point of over 300 °C. The compound also returned a 50% inhibitory concentration (IC50) in series [1] (Homo sapiens, MDA-MB-231, 48 h) of 51.7 ± 2.1 µM. In addition, the IC50 in series [2] came out at 56 ± 3.7 µM.
For `Cc1ccc(N=C2SC(=C3C(=O)Nc4ccc(F)cc43)C(=O)N2c2ccc(C)cc2)cc1` [Compound 4i, 5-(5-Fluoro-2-oxoindolin-3-ylidene)-3-(p-tolyl)-2-(p-tolylimino)thiazolidin-4-one] the same measures were over 300 °C, 152 ± 11.5 µM and 105 ± 7.5 µM.
The corresponding values for `Cc1ccc(N=C2SC(=C3C(=O)Nc4ccc(Cl)cc43)C(=O)N2c2ccc(C)cc2)cc1` [Compound 4j, 5-(5-Chloro-2-oxoindolin-3-ylidene)-3-(p-tolyl)-2-(p-tolylimino)thiazolidin-4-one] are over 300 °C, 50.8 ± 3.5 µM and over 200 µM.
Compound `Cc1ccc(N=C2SC(=C3C(=O)Nc4ccc(Br)cc43)C(=O)N2c2ccc(C)cc2)cc1` [Compound 4k, 5-(5-Bromo-2-oxoindolin-3-ylidene)-3-(p-tolyl)-2-(p-tolylimino)thiazolidin-4-one] yielded a melting point of over 300 °C. This compound displayed an IC50 in series [1] (Homo sapiens, MDA-MB-231, 48 h) of over 200 µM. In series [2], this compound displayed an IC50 of over 200 µM.
Compound `COc1ccc2c(c1)C(=C1SC(=Nc3ccc(C)cc3)N(c3ccc(C)cc3)C1=O)C(=O)N2` [Compound 4l, 5-(5-Methoxy-2-oxoindolin-3-ylidene)-3-(p-tolyl)-2-(p-tolylimino)thiazolidin-4-one] returned a melting point of over 300 °C. This compound displayed an IC50 in series [1] of 47.2 ± 4.1 µM. In addition, in series [1] (Homo sapiens, MDA-MB-231, 48 h), the IC50 was 47.1 ± 4.1 µM. Besides, the IC50 in series [2] is 53.5 ± 3.6 µM. The compound further returned an IC50 in series [3] of 176 ± 11.3 µM. Moreover, in series [4], half-maximal inhibition (IC50) required 157 ± 6.8 µM and the “Selectivity Index (MCF-10A/MDA-MB-231)” value is given as 3.3.
In turn, `Cc1ccc(N=C2SC(=C3C(=O)Nc4c(C)cc(C)cc43)C(=O)N2c2ccc(C)cc2)cc1` [Compound 4n, 5-(5,7-Dimethyl-2-oxoindolin-3-ylidene)-3-(p-tolyl)-2-(p-tolylimino)thiazolidin-4-one] yielded a melting point of over 300 °C. Besides, inhibition in series [1] (Homo sapiens, MDA-MB-231, 48 h) was half-maximal at 36.3 ± 2.9 µM (IC50). Further, in series [2], the IC50 amounted to 23.7 ± 1.9 µM. In series [3], this compound had an IC50 of 218 ± 13.5 µM. Further, in series [4], 154 ± 5.2 µM corresponded to half-maximal inhibition (IC50) and the “Selectivity Index (MCF-10A/MDA-MB-231)” value was 4.2.
For `O=C1Nc2ccc(Cl)cc2C1=c1sc2nc3ccccc3n2c1=O` [Compound 7a, 2-(5-Chloro-2-oxoindolin-3-ylidene)benzo[4,5]imidazo[2,1-b]thiazol-3(2H)-one], the melting point is over 300 °C. In series [1] (Homo sapiens, MDA-MB-231, 48 h), this compound gave an IC50 of 47.2 ± 3.8 µM. The compound further showed an IC50 in series [2] of 127 ± 9.9 µM. Moreover, it took 353 ± 17.1 µM to reach half-maximal inhibition in series [3] (IC50). Further, in series [4], the IC50 amounted to 234 ± 9.6 µM and the “Selectivity Index (MCF-10A/MDA-MB-231)” value was 5.0.
Regarding `Cc1ccc2c(c1)C(=c1sc3nc4ccccc4n3c1=O)C(=O)N2` [Compound 7c, 2-(5-Methyl-2-oxoindolin-3-ylidene)benzo[4,5]imidazo[2,1-b]thiazol-3(2H)-one], the melting point is over 300 °C. The compound also displayed an IC50 in series [1] (Homo sapiens, MDA-MB-231, 48 h) of 40.3 ± 2.5 µM. Besides, the IC50 in series [2] was determined as 48.2 ± 2.7 µM. For the same compound, the IC50 in series [3] amounted to 192 ± 10.8 µM. Also, in series [4], the IC50 was 242 ± 11.5 µM and the “Selectivity Index (MCF-10A/MDA-MB-231)” value was 6.0.
Compound `Cc1cc(C)c2c(c1)C(=c1sc3nc4ccccc4n3c1=O)C(=O)N2` [Compound 7d, 2-(5,7-Dimethyl-2-oxoindolin-3-ylidene)benzo[4,5]imidazo[2,1-b]thiazol-3(2H)-one] registered a melting point of over 300 °C. This compound also yielded an IC50 in series [1] (Homo sapiens, MDA-MB-231, 48 h) of 23.5 ± 1 µM. This compound had an IC50 in series [2] of 27.6 ± 2.4 µM. The compound further registered an IC50 in series [3] of 234 ± 15.4 µM. In addition, in series [4], the 50% inhibitory concentration (IC50) stood at 250 ± 9.8 µM and the “Selectivity Index (MCF-10A/MDA-MB-231)” value is 10.7.
In the case of `COc1cccc2c1C(=O)c1c(O)c3c(c(O)c1C2=O)C[C@@](O)(C(=O)CO)C[C@@H]3O[C@H]1C[C@H](N)[C@H](O)[C@H](C)O1` [Dox., Doxorubicin, reference compound], the IC50 in series [1] (Homo sapiens, MDA-MB-231, 48 h) worked out at 4.7 ± 0.4 µM; in series [2], 3.8 ± 0.4 µM.
On to `CCN(CC)CCNC(=O)c1c(C)[nH]c(/C=C2\C(=O)Nc3ccc(F)cc32)c1C` [Sunitinib, reference compound], for which the IC50 in series [1] (Homo sapiens, MDA-MB-231, 48 h) was 5.5 ± 0.5 µM; in series [2], 3.4 ± 0.3 µM.

What is called IC50 is the concentration at which inhibition is half-maximal. In general, melting point refers to the temperature of the solid-liquid transition.
